Patent US9233989B2, “Sila analogs of oxazolidinone derivatives and synthesis thereof” (Council of Scientific & Industrial Research, priority 2011, dated 2016)
≈ marks a conversion by molar mass, not a printed value. Where two headings read alike, the source gives them in different places.

Columns and labels:
[1] = tested on: Mycobacterium tuberculosis H37Rv; assay: Anti-TB activity, colorimetric resazurin microtiter assay; assay type: cell-based; conditions: read-out: MIC, Minimum Inhibitory Concentration (90%)
S.aureus ATCC 29213 = assay: MIC by microbroth dilution method; assay type: cell-based
MRSE ATCC 35984 = assay: MIC by microbroth dilution method; assay type: cell-based, S. epidermidis
E.faecalis ATCC 19433 = assay: MIC by microbroth dilution method; assay type: cell-based
MRSE ATCC 35983 = assay: MIC by microbroth dilution method; assay type: cell-based, S. epidermidis
E.faecalis ATCC 29212 = assay: MIC by microbroth dilution method; assay type: cell-based
[2] = tested on: S.aureus ATCC 49775 PVL + ve; assay type: cell-based
E.faecium ATCC 3567 = assay: MIC by microbroth dilution method; assay type: cell-based
MRSA 562 = assay: MIC by microbroth dilution method; assay type: cell-based, S. aureus
E.faecium ATCC 19434 = assay: MIC by microbroth dilution method; assay type: cell-based
MRSA ATCC BAA 39 = assay: MIC by microbroth dilution method; assay type: cell-based, S. aureus
E.coli 7632 = assay: MIC by microbroth dilution method; assay type: cell-based
E.faecium 06076 VRE = assay: MIC by microbroth dilution method; assay type: cell-based
[3] = tested on: S.aureus ATCC 700699 Mu50; assay: MIC by microbroth dilution method; assay type: cell-based
[4] = tested on: E.faecalis ATCC 51299(VRE&HLAR); assay: MIC by microbroth dilution method; assay type: cell-based
S.epidermidis ATCC 12228 = assay: MIC by microbroth dilution method; assay type: cell-based
[5] = tested on: S.aureus ATCC 13709 Smith; assay: MIC by microbroth dilution method; assay type: cell-based
S.epidermis St 358 = assay: MIC by microbroth dilution method; assay type: cell-based, S. epidermidis
MRSA 0-2657 = assay: MIC by microbroth dilution method; assay type: cell-based, S. aureus
MRSA DB 00026 = assay: MIC by microbroth dilution method; assay type: cell-based, S. aureus
E.faecium 134 VRE = assay: MIC by microbroth dilution method; assay type: cell-based
[6] = tested on: S.aureus 13709 LNZ mutant; assay type: cell-based
E.faecium 6A VRE = assay: MIC by microbroth dilution method; assay type: cell-based
S.epidermidis ATCC 14990 = assay: MIC by microbroth dilution method; assay type: cell-based
E.faecalis SP 346 VRE = assay: MIC by microbroth dilution method; assay type: cell-based
E.faecium ATCC 49224 = assay: MIC by microbroth dilution method; assay type: cell-based
MRSA 252 BAA 1720 = assay: MIC by microbroth dilution method; assay type: cell-based, S. aureus
E.faecium ATCC 35667 = assay: MIC by microbroth dilution method; assay type: cell-based
S.aureus2 (PVL + ve) = assay type: cell-based, S. aureus
MRSA ATCC 43300 = assay: MIC by microbroth dilution method; assay type: cell-based, S. aureus
S.aureus DB00026 = assay: MIC by microbroth dilution method; assay type: cell-based
[7] = tested on: S.aureus ATCC Newman 25904; assay: MIC by microbroth dilution method; assay type: cell-based
[8] = Mycobacterium tuberculosis, H37RV

Row | Compound | MIC [1, 8] [µg/mL] | MIC (S.aureus ATCC 29213) [µg/mL] | MIC (MRSE ATCC 35984) [µg/mL] | MIC (E.faecalis ATCC 19433) [µg/mL] | MIC (MRSE ATCC 35983) [µg/mL] | MIC (E.faecalis ATCC 29212) [µg/mL] | MIC [2] [µg/mL] | MIC (E.faecium ATCC 3567) [µg/mL] | MIC (MRSA 562) [µg/mL] | MIC (E.faecium ATCC 19434) [µg/mL] | MIC (MRSA ATCC BAA 39) [µg/mL] | MIC (E.coli 7632) [µg/mL] | MIC (E.faecium 06076 VRE) [µg/mL] | MIC [3] [µg/mL] | MIC [4] [µg/mL] | MIC [5] [µg/mL] | MIC (S.epidermis St 358) [µg/mL] | MIC (MRSA 0-2657) [µg/mL] | MIC (MRSA DB 00026) [µg/mL] | MIC (E.faecium 134 VRE) [µg/mL] | other results
1 | COC(=S)NC[C@H]1CN(c2cc(F)c(N3CC[Si](C)(C)CC3)c(F)c2)C(=O)O1 [NDS-10055, (S)—O-methyl(3-(4-(4,4-dimethyl-1,4-azasilinan-1-yl)-3,5-difluorophenyl)-2-oxooxazolidin-5-yl)methylcarbamothioate] | > 100 | – | – | – | – | – | – | – | – | – | – | – | – | – | – | – | – | – | – | – | –
2 | CC(C)(C)OC(=O)NC[C@H]1CN(c2cc(F)c(N3CC[Si](C)(C)CC3)c(F)c2)C(=O)O1 [NDS-10031, (S)-tert-butyl((3-(4-(4,4-dimethyl-1,4-azasilinan-1-yl)-3,5-difluorophenyl)-2-oxooxazolidin-5-yl)methyl)carbamate] | – | > 16 | > 16 | > 16 | > 16 | > 16 | > 16 | > 16 | > 16 | > 16 | > 16 | > 32 | > 16 | > 16 | > 16 | > 16 | > 16 | > 16 | > 16 | > 16 | MIC (S.epidermidis ATCC 12228): > 16 µg/mL; MIC [6]: > 16 µg/mL; MIC (E.faecium 6A VRE): > 16 µg/mL; MIC (S.epidermidis ATCC 14990): > 16 µg/mL; MIC (E.faecalis SP 346 VRE): > 16 µg/mL
3 | COC(=O)NC[C@H]1CN(c2cc(F)c(N3CC[Si](C)(C)CC3)c(F)c2)C(=O)O1 [NDS-10053, (S)-methyl(3-(4-(4,4-dimethyl-1,4-azasilinan-1-yl)-3,5-difluorophenyl)-2-oxooxazolidin-5-yl)methylcarbamate] | 50 (≈ 121 µM) | 16 (≈ 38.7 µM) | 8 (≈ 19.3 µM) | 32 (≈ 77.4 µM) | 32 (≈ 77.4 µM) | 32 (≈ 77.4 µM) | 16 (≈ 38.7 µM) | 16 (≈ 38.7 µM) | 16 (≈ 38.7 µM) | 16 (≈ 38.7 µM) | 8 (≈ 19.3 µM) | > 32 | > 32 | 8 (≈ 19.3 µM) | 16 (≈ 38.7 µM) | 16 (≈ 38.7 µM) | 16 (≈ 38.7 µM) | 8 (≈ 19.3 µM) | 32 (≈ 77.4 µM) | 32 (≈ 77.4 µM) | MIC (E.faecium ATCC 49224): 32 µg/mL (≈ 77.4 µM); MIC (MRSA 252 BAA 1720): 8 µg/mL (≈ 19.3 µM); MIC (E.faecium ATCC 35667): 8 µg/mL (≈ 19.3 µM); MIC (S.aureus2 (PVL + ve)): 16 µg/mL (≈ 38.7 µM); MIC (MRSA ATCC 43300): 16 µg/mL (≈ 38.7 µM); MIC (S.epidermidis ATCC 12228): 8 µg/mL (≈ 19.3 µM); MIC (S.aureus DB00026): 16 µg/mL (≈ 38.7 µM); MIC [7]: 16 µg/mL (≈ 38.7 µM); MIC [6]: > 32 µg/mL; MIC (E.faecium 6A VRE): 4 µg/mL (≈ 9.67 µM); MIC (S.epidermidis ATCC 14990): 8 µg/mL (≈ 19.3 µM); MIC (E.faecalis SP 346 VRE): 32 µg/mL (≈ 77.4 µM)
4 | CC(=O)NC[C@H]1CN(c2cc(F)c(N3CC[Si](C)(C)CC3)c(F)c2)C(=O)O1 [NDS-10028, (S)—N-((3-(4-(4,4-dimethyl-1,4-azasilinan-1-yl)-3,5-difluorophenyl)-2-oxooxazolidin-5-yl)methyl)acetamide] | > 50 | > 16 | 8 (≈ 20.1 µM) | 16 (≈ 40.3 µM) | 4 (≈ 10.1 µM) | 8 (≈ 20.1 µM) | 16 (≈ 40.3 µM) | 16 (≈ 40.3 µM) | 8 (≈ 20.1 µM) | 8 (≈ 20.1 µM) | 8 (≈ 20.1 µM) | > 32 | 8 (≈ 20.1 µM) | 8 (≈ 20.1 µM) | 8 (≈ 20.1 µM) | 8 (≈ 20.1 µM) | 8 (≈ 20.1 µM) | 8 (≈ 20.1 µM) | 8 (≈ 20.1 µM) | 8 (≈ 20.1 µM) | MIC (E.faecium ATCC 49224): 8 µg/mL (≈ 20.1 µM); MIC (MRSA 252 BAA 1720): > 32 µg/mL; MIC (E.faecium ATCC 35667): 8 µg/mL (≈ 20.1 µM); MIC (S.aureus2 (PVL + ve)): > 32 µg/mL; MIC (MRSA ATCC 43300): > 32 µg/mL; MIC (S.epidermidis ATCC 12228): 4 µg/mL (≈ 10.1 µM); MIC (S.aureus DB00026): > 32 µg/mL; MIC [7]: > 32 µg/mL; MIC [6]: > 16 µg/mL; MIC (E.faecium 6A VRE): 4 µg/mL (≈ 10.1 µM); MIC (S.epidermidis ATCC 14990): 4 µg/mL (≈ 10.1 µM); MIC (E.faecalis SP 346 VRE): 8 µg/mL (≈ 20.1 µM)
5 | CCC(=O)NC[C@H]1CN(c2cc(F)c(N3CC[Si](C)(c4ccccc4)CC3)c(F)c2)C(=O)O1 [NDS-10069, (S)—N-((3-(3,5-difluoro-4-(4-methyl-4-phenyl-1,4-azasilinan-1-yl)phenyl)-2-oxooxazolidin-5-yl)methyl)propionamide] | 50 (≈ 106 µM) | – | – | – | – | – | – | – | – | – | – | – | – | – | – | – | – | – | – | – | –
6 | CC(=O)NC[C@H]1CN(c2ccc(N3CCOCC3)c(F)c2)C(=O)O1 [Linezolid, (S)—N-({3-[3-fluoro-4-(morpholin-4-yl)phenyl]-2-oxo-1,3-oxazolidin-5-yl}methyl)acetamide, reference compound] | – | 2 (≈ 5.93 µM) | 1 (≈ 2.96 µM) | 1 (≈ 2.96 µM) | 1 (≈ 2.96 µM) | 0.5 (≈ 1.48 µM) | 2 (≈ 5.93 µM) | 2 (≈ 5.93 µM) | 2 (≈ 5.93 µM) | 2 (≈ 5.93 µM) | 2 (≈ 5.93 µM) | 1 (≈ 2.96 µM) | 2 (≈ 5.93 µM) | 2 (≈ 5.93 µM) | 1 (≈ 2.96 µM) | 2 (≈ 5.93 µM) | 2 (≈ 5.93 µM) | 1 (≈ 2.96 µM) | 2 (≈ 5.93 µM) | 2 (≈ 5.93 µM) | MIC (E.faecium ATCC 49224): 2 µg/mL (≈ 5.93 µM); MIC (MRSA 252 BAA 1720): 1 µg/mL (≈ 2.96 µM); MIC (E.faecium ATCC 35667): 4 µg/mL (≈ 11.9 µM); MIC (S.aureus2 (PVL + ve)): 2 µg/mL (≈ 5.93 µM); MIC (MRSA ATCC 43300): 4 µg/mL (≈ 11.9 µM); MIC (S.aureus DB00026): 1 µg/mL (≈ 2.96 µM); MIC [7]: 2 µg/mL (≈ 5.93 µM); MIC [6]: 2 µg/mL (≈ 5.93 µM); MIC (E.faecium 6A VRE): 2 µg/mL (≈ 5.93 µM); MIC (S.epidermidis ATCC 14990): 2 µg/mL (≈ 5.93 µM); MIC (E.faecalis SP 346 VRE): 2 µg/mL (≈ 5.93 µM)
7 | CC(=O)NC[C@H]1CN(c2cc(F)c(N3CC[Si](C)(c4ccccc4)CC3)c(F)c2)C(=O)O1 [NDS-10068, (S)—N-((3-(3,5-difluoro-4-(4-methyl-4-phenyl-1,4-azasilinan-1-yl)phenyl)-2-oxooxazolidin-5-yl)methyl)acetamide] | > 100 | – | – | – | – | – | – | – | – | – | – | – | – | – | – | – | – | – | – | – | –
8 | CO[C@H]1/C=C/O[C@@]2(C)Oc3c(C)c(O)c4c(O)c(c(/C=N/N5CCN(C)CC5)c(O)c4c3C2=O)NC(=O)/C(C)=C\C=C\[C@H](C)[C@H](O)[C@@H](C)[C@@H](O)[C@@H](C)[C@H](OC(C)=O)[C@@H]1C [Rifampicin, reference compound] | – | – | – | – | – | – | – | – | – | – | – | – | – | – | – | – | – | – | – | – | MIC ([1]; inhibition of Mycobacterium tuberculosis H37Rv growth, 7H9-OADC media, 37° C., visual readout): 0.3 µg/mL (≈ 0.365 µM)
